The source of these data is patent US20040214803A1, “Use of vitamin d3 analogue for the treatment of autoimmune diabetes” (priority 2001, published 2004).

The test system of one test is CD4+ T cells. The test is described as follows: Intracellular cytokine production by CD4+ cells from treated NOD mice (PMA and ionomycin, flow cytometry). The class given is in vivo, mouse. The protocol:
After removal of all visible pancreatic lymph nodes, pancreata were individually digested in 3 ml HBSS containing 1 mg/ml collagenase IV (Sigma), by shaking (200 rpm) at 37° C. for 15 min. Single cell suspensions were collected after diluting the enzyme with ice-cold HBSS containing 5% FCS (FETAL CALF SERUM) and removal of the aggregates by settling for 2 min on ice. Aggregates were further digested with collagenase IV at 0.5 mg/ml for 10 min, and at 0.25 mg/ml for 6 min. Single cell suspensions were washed three times, and passed over a MASC Pre-separation filter (Miltenyi Biotec) to remove cell aggragetes and clumps. Single cell suspensions were incubated with anti-CD4 mAb-coated Microbeads (Miltenyi Biotec) and applied onto Mini-MACS columns (Miltenyi Biotec). This procedure yielded a positive fraction containing CD4^+ cells. Immediately after purification cells were stimulated with PMA (PHORBOL MYRISTIC ACETATE) and ionomycin in complete medium, fixed, and stained the next day for intracellular production of cytokines.
Cells were stained for IFN-γ, IL-4, IL-10 and IL-2 as previously described (Trembleau, S., et al. Eur J Immunol. 1997,27:2330-2339). Reagents for intracytoplasmic staining contained 1% FCS, 0.5% saponin (Sigma), and 0.1% sodium azide. All incubations were performed at room temperature. Cells were washed, pre-incubated for 10 min with PBS(phosphate buffered saline)/FCS/saponin, and then incubated with FITC(fluorescein isothiocyanate)-labeled rat anti-mouse IFN-γ (XMG1.2) and PE (phycoerythrin)-labeled rat anti-IL-2 (JE56-5H4), rat anti-mouse IL-4 (11B11), or PE-labeled rat anti-mouse IL-10 (JES5-16E3). Isotype controls were FITC- and PE-labeled rat IgG1 (R3-34). After 30 min, cells were washed twice with PBS/FCS/saponin and then with PBS containing 5% of FCS without saponin to allow membrane closure. The cell surface was then stained with CyChrome-labeled anti-CD4 (L3T4) for 15 min at room temperature. Analysis was performed with a FACScan flow cytometer (Becton Dickinson, Mountain View, Calif.) equipped with CellQuest software, and 10,000 events were acquired.
To identify mechanisms accounting for the reduced type 1 DM development in 1,25-dihydroxy-16,23Z-diene-26,27-hexafluoro-19-nor vitamin D3-treated NOD mice, the cytokines produced by CD4^+ T cells in the spleen, pancreatic lymph node and pancreas-infiltrating cells of […] NOD mice, treated from 8 to 16 weeks of age with Compound A or vehicle were analyzed.
FIG. 4. (page 4/9) Cytokine production by CD4^+ cells from spleen, pancreatic lymph node and pancreas-infiltrating cells. Spleen (A), pancreatic lymph node (B) and pancreas-infiltrating (C) CD4^+ cells were obtained from untreated 8 week-old or 20 week-old NOD mice treated 5×/week p.o. from 8 to 16 weeks of age with vehicle or with 0.03 μg/Kg Compound A. Positively selected CD4^+ cells (2×10^5 cells/well) were stimulated with PMA and ionomycin and analyzed by flow cytometry for IFN-γ (abscissa) and IL-2, IL-4 or IL-10 (ordinate) production. Acquisition was performed on CD4^+ cells. Percentage of positive cells, set according to the isotype-matched controls (not shown), are shown in the top corner of each quadrant. Dot plots are from a representative experiment out of four performed. Bar graphs represent the mean ±SE of four independent experiments using pooled cells from 3 to 4 mice. The P values were calculated by Mann-Whitney U test (* indicates P<0.05 vs. 8 week-old NOD mice).
On the technique in general: In flow cytometry, cells or beads pass a laser one at a time.

For another test, the system named is IL-12p75. Nature of the test: LPS-induced IL-12 production in vivo (serum ELISA). More on the design: species or system mouse. The protocol:
Lymphokine production was induced in 8 week-old female NOD mice by i.p. injection of 400 μg/mouse Salmonella abortus equi LPS (Sigma). Compound A was administered 72, 48, 24, and 1 h prior to LPS. Blood samples were collected 3 h post LPS injection and serum cytokines measured by ELISA.
Cytokines were quantified by two-sites ELISA. IFN-γ was determined using paired mAb from PharMingen (San Diego, Calif.). For capture, the mAb was AN-18.17.24. Samples were titrated and incubated overnight at 4° C. To detect bound IFN-γ plates were then incubated with biotinylated XMG1.2 mAb. […] The plates were washed again and incubated with the developing substrate p-nitrophenylphosphate disodium (Sigma) in diethanolamine buffer (pH 9.6; 100 μl/well). The reaction was stopped by adding 50 μl/well NaOH 3N, and absorbance was read at 405 nm. ELISA for IL-12p75 was performed as described (Gately, M. K., et al., Current Protocols Immunol. 1995, 3, 15:6.16.11-16.16.15). Cytokines were quantified from two to three titration points using standard curves generated by purified recombinant mouse cytokines and results expressed as cytokine concentration in ng or pg/ml. Detection limits were 15 pg/ml for both cytokines. […]
FIG. 3. […] IFN-γ, IL-12p75 and serum calcium levels were quantified 3 h post LPS injection. […] The P values were calculated by Mann-Whitney U test (* indicates P<0.05 vs. vehicle-treated NOD mice).
(In general: An ELISA detects its analyte on a solid surface through an enzyme-linked reagent.)

For test [1], the system named is pancreas-infiltrating cells. The test is described as follows: Cytofluorimetric analysis of pancreas-infiltrating cells. The class given is in vivo, mouse. The note with it: among 8 week-old, vehicle-treated and treated mice at 30 weeks. The protocol:
After removal of all visible pancreatic lymph nodes, pancreata were individually digested in 3 ml HBSS containing 1 mg/ml collagenase IV (Sigma), by shaking (200 rpm) at 37° C. for 15 min. Single cell suspensions were collected after diluting the enzyme with ice-cold HBSS containing 5% FCS (FETAL CALF SERUM) and removal of the aggregates by settling for 2 min on ice. Aggregates were further digested with collagenase IV at 0.5 mg/ml for 10 min, and at 0.25 mg/ml for 6 min. Single cell suspensions were washed three times, and passed over a MASC Pre-separation filter (Miltenyi Biotec) to remove cell aggragetes and clumps. […]
Single-cell suspensions of pancreas-infiltrating, spleen or lymph node cells were incubated with anti-CD4 mAb-coated Microbeads (Miltenyi Biotec) and applied onto Mini-MACS columns (Miltenyi Biotec). […] Cells were analyzed with a FACScan flow cytometer equipped with CellQuest software (Becton Dickinson, Mountain View, Calif.).
B. Consecutive sections of the same islets were stained with anti-CD4, anti-CD8, anti-B220, anti-CD11b (Mac-1), and anti-CD11c (N418) mAbs. […] Pancreas-infiltrating cells isolated from untreated 8 week-old NOD mice, vehicle-treated and Compound A treated NOD mice at 30 weeks of age were stained with mAbs specific for the indicated surface molecules and analyzed by flow cytometry. […]

Where [2] appears, read: CD4+ T cells from pancreatic lymph nodes, vs 30 week-old vehicle-treated or 8 week-old NOD mice.

As to `C[C@H](C/C=C\C(O)(C(F)(F)F)C(F)(F)F)C1=CC[C@H]2/C(=C/C=C3C[C@@H](O)C[C@H](O)C3)CCC[C@]12C` [Compound A, 1,25-dihydroxy-16,23Z-diene-26,27-hexafluoro-19-nor vitamin D3], in the test with CD4+ T cells (setting [2]), the “reduction of IFN-γ-producing cells” value turned out to be 3 fold and the “reduction of IL-2 producing cells” value was found to be 10 fold. The IL-4-producing cells in the test on CD4+ T cells (CD4+ cells, means of three experiments, 0.7±0.2% in 8 weeks old, 0.9±0.2% vehicle) turned out to be 2.5±0.3%. Moreover, in the test with CD4+ T cells (CD4+ pancreas-infiltrating cells, compared with vehicle-treated mice), the IFN-γ-producing cells result is “similarly lower”. In the test with CD4+ T cells (mouse, in vivo), the “IL-10-producing CD4+ cells” value was “No increase”. Besides, the “LPS-induced IL-12p75 production” value in the test with IL-12p75 (0.03 μg/Kg per os 72, 48, 24, 1 h before LPS, serum 3 h post LPS) was “inhibited significantly”. In addition, in the test with IL-12p75 (higher than 1,25(OH)2D3 (literature comparison)), the “potency in inhibiting LPS-induced IL-12p75 and IFN-γ production relative to 1,25(OH)2D3” value was “about 100 fold”. Besides, the “percentage of CD4+, CD8+, B220+, CD11b+ and CD11c+ pancreas-infiltrating cells” value in test [1] was “no difference”.
